Data set [1] has as its system L. major promastigotes. The data set is described as follows: AlamarBlue assay, antileishmanial activity against L. major promastigotes. The format is cell-based, Leishmania major. The note with it: Leishmania major, mean of two independent experiments. How it is done:
(§1) Antileishmanial activities of the synthesized compounds were evaluated in L. major promastigotes as described before and in L. donovani promastigotes according to Hazra et al.. […] The antiprotozoal activities are presented in Table 1, Table 2 and Table 3 as inhibitory concentrations (IC50). […] Materials and methods for the biological assays have been described before by the authors. […] The protocol for the L. donovani quantitative colorimetric assay is outlined by Hazra et al.. The IC50 values are presented as mean values of two independent experiments against the parasite and macrophages.
In general terms: Alamar Blue is a resazurin reagent that responds to reducing activity.

The test system of data set [2] is L. donovani promastigotes. Briefly: Quantitative colorimetric assay against L. donovani promastigotes. Type of data set: cell-based. The note with it: Leishmania donovani, mean of two independent experiments. How it is done:
as §1

Data set [3] can be described thus: AlamarBlue cytotoxicity assay on J774.1 macrophages. Type of data set: cell-based, murine. The note with it: mouse, J774.1 macrophage cell line, mean of two independent experiments.
In data set [4] the test system is L. major amastigotes. The data set is described as follows: L. major amastigote assay. Type of data set: cell-based, Leishmania major.
A short description of data set [5]: Cytotoxicity against bone marrow derived macrophages (BMDM). The note with it: mouse. The format is cell-based, murine. The text has this: The amastigote is the intracellular pathogenic form of the parasite in the vertebrate host and therefore the important target. […] With regard to antileishmanial activity cinnamic acid menthyl (20) and […] (19) show good activities combined with low cytotoxicity. […] Materials and methods for the biological assays have been described before by the authors. […] The protocol for the L. donovani quantitative colorimetric assay is outlined by Hazra et al.. The IC50 values are presented as mean values of two independent experiments against the parasite and macrophages.

The subject of data set [6] is cysteine-cathepsin (L. major promastigote full-lysate). Briefly: Cysteine-cathepsin fluorescence activity assay with L. major promastigote full-lysate. Type of data set: biochemical, Leishmania major. The note with it: preliminary experiments, result in words.

The term IC50 denotes the concentration that inhibits the measured activity by half. High values mean a need for much substance, low ones inhibition by little substance. On to `CC1(C)C2CCC1(C)[C@H](OC(=O)/C=C/c1ccc(O)c(O)c1)C2` (stereo partly drawn) [Compound 1, Caffeic Acid (−)-bornyl Ester], for which the half-inhibitory concentration (IC50) in data set [1] amounted to 48.8 µM; in data set [2], 27.3 µM; in data set [3] it was 8.3 µM; in data set [4] (Leishmania major) it was 47.6 µM; in data set [5] it was 5.3 µM. The “Selectivity index SI” value in data set [4] (SI = IC50 for BMDM/IC50 for L. major (amastigotes)) came to 0.1. Moreover, the protease inhibitory activity result in data set [6] is listed as “showed protease inhibitory activity”.
